Measured values: the CheMixHub viscosity set
± gives the uncertainty stated by the source.

Assay: xn = mol fraction of the nth substance listed

ClC=C(Cl)Cl + CO
viscosity [mPa·s], 101 kPa
Details	293.15 K	303.15 K	313.15 K	323.15 K
x2 = 0.017	0.554 ± 0.011	0.507 ± 0.01	0.466 ± 0.01	0.429 ± 0.009
x2 = 0.057	0.56 ± 0.011	0.509 ± 0.01	0.466 ± 0.01	0.427 ± 0.009
x2 = 0.152	0.58 ± 0.012	0.523 ± 0.011	0.476 ± 0.01	0.435 ± 0.009
x2 = 0.1523	–	0.56 ± 0.0074	0.524 ± 0.007	0.473 ± 0.0063
x2 = 0.286	0.605 ± 0.012	0.541 ± 0.011	0.485 ± 0.01	0.441 ± 0.009
x2 = 0.3071	–	0.55 ± 0.0073	0.518 ± 0.0069	0.4735 ± 0.0063
x2 = 0.446	–	0.54 ± 0.0072	0.511 ± 0.0068	0.473 ± 0.0063
x2 = 0.562	0.656 ± 0.013	0.576 ± 0.012	0.508 ± 0.011	0.452 ± 0.01
x2 = 0.5963	–	0.53 ± 0.0071	0.505 ± 0.0067	0.474 ± 0.0063
x2 = 0.6	0.667 ± 0.013	0.581 ± 0.012	0.513 ± 0.011	0.455 ± 0.01
x2 = 0.699	0.674 ± 0.013	0.59 ± 0.012	0.519 ± 0.011	0.461 ± 0.01
x2 = 0.72	0.67 ± 0.013	0.587 ± 0.012	0.517 ± 0.011	0.458 ± 0.01
x2 = 0.756	–	0.518 ± 0.0069	0.497 ± 0.0066	0.475 ± 0.0063
x2 = 0.78	0.663 ± 0.013	0.578 ± 0.012	0.508 ± 0.011	0.45 ± 0.01
x2 = 0.9011	–	0.508 ± 0.0068	0.492 ± 0.0065	0.476 ± 0.0063
x2 = 0.92	0.62 ± 0.012	0.543 ± 0.011	0.477 ± 0.01	0.423 ± 0.009

ClC=C(Cl)Cl + CCCCOCCOCCO
298.15 K, 101.33 kPa
Details	viscosity [mPa·s]
x1 = 0.0171	5.12 ± 0.055
x2 = 0.0067	0.539 ± 0.006
x2 = 0.0185	0.56 ± 0.006
x2 = 0.0282	0.577 ± 0.006
x2 = 0.0462	0.609 ± 0.006
x2 = 0.0623	0.643 ± 0.007
x2 = 0.0798	0.68 ± 0.007
x2 = 0.0916	0.708 ± 0.007
x2 = 0.1239	0.784 ± 0.008
x2 = 0.1624	0.89 ± 0.009
x2 = 0.2002	0.999 ± 0.01
x2 = 0.231	1.097 ± 0.011
x2 = 0.268	1.224 ± 0.012
x2 = 0.2998	1.339 ± 0.013
x2 = 0.3306	1.46 ± 0.014
x2 = 0.3622	1.598 ± 0.016
x2 = 0.4019	1.789 ± 0.018
x2 = 0.4263	1.914 ± 0.019
x2 = 0.4614	2.087 ± 0.021
x2 = 0.5031	2.305 ± 0.023
x2 = 0.54	2.492 ± 0.025
x2 = 0.6007	2.81 ± 0.028
x2 = 0.6745	3.232 ± 0.033
x2 = 0.7406	3.618 ± 0.037
x2 = 0.7898	3.928 ± 0.041
x2 = 0.8221	4.116 ± 0.043
x2 = 0.8567	4.332 ± 0.046
x2 = 0.8875	4.525 ± 0.048
x2 = 0.9174	4.722 ± 0.051
x2 = 0.9489	4.919 ± 0.053
x2 = 0.9678	5.031 ± 0.054

O=C1CCCC1 + CN(C)c1ccccc1
viscosity [mPa·s], 101 kPa
Details	303.15 K	308.15 K
x2 = 0.0705	1.022 ± 0.038	0.948 ± 0.036
x2 = 0.1321	1.04 ± 0.039	0.964 ± 0.036
x2 = 0.2014	1.062 ± 0.039	0.981 ± 0.037
x2 = 0.2754	1.083 ± 0.04	0.997 ± 0.037
x2 = 0.3412	1.101 ± 0.04	1.011 ± 0.038
x2 = 0.4012	1.114 ± 0.041	1.023 ± 0.038
x2 = 0.4825	1.13 ± 0.041	1.039 ± 0.038
x2 = 0.5612	1.143 ± 0.042	1.053 ± 0.039
x2 = 0.6405	1.153 ± 0.042	1.066 ± 0.039
x2 = 0.7025	1.158 ± 0.042	1.076 ± 0.04
x2 = 0.7758	1.164 ± 0.042	1.087 ± 0.04
x2 = 0.8512	1.168 ± 0.042	1.096 ± 0.04
x2 = 0.9215	1.169 ± 0.042	1.104 ± 0.04

CC(O)CO (stereo not drawn) + CC#N
viscosity [mPa·s], 100 kPa
Details	x2 = 0.1127	x2 = 0.2	x2 = 0.3055	x2 = 0.4021	x2 = 0.5008	x2 = 0.5989	x2 = 0.6987	x2 = 0.7958	x2 = 0.8961
293.15 K	31.4 ± 6.3	20.3 ± 4.1	12.2 ± 2.4	7.53 ± 1.5	4.71 ± 0.94	2.9 ± 0.58	1.82 ± 0.36	1.1 ± 0.22	0.66 ± 0.13
298.15 K	25.4 ± 5.1	16.9 ± 3.4	10.3 ± 2.1	6.21 ± 1.2	4.02 ± 0.81	2.42 ± 0.49	1.57 ± 0.31	0.97 ± 0.19	0.59 ± 0.12
303.15 K	20.8 ± 4.2	13.8 ± 2.8	8.68 ± 1.7	5.48 ± 1.1	3.52 ± 0.71	2.25 ± 0.45	1.4 ± 0.28	0.87 ± 0.17	0.53 ± 0.11

CCCCC(=O)[O-].CC[NH+](CC)CCO + CCCCn1cc[n+](C)c1.COP(=O)([O-])OC
Details	viscosity [mPa·s]
298.15 K, 101 kPa, x1 = 0.1018	415.5 ± 13
